Test results from the supplement of paper PMC10307832.

Experiments:
Experiment in all cases: relative viability (nuclei count vs DMSO), 5 days (fraction); higher = more cells survive
201T = system: 201T
Procedure, shortened: (§1)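 Each reported value is a median over duplicate plates. It expresses relative viability: treated-well nuclei count divided by vehicle-well nuclei count. Lung cancer cell lines in 1536-well plates were dosed by pin tool a day after seeding, alone with one drug or with a fixed anchor-drug dose plus five library-drug doses (not always all listed) in √10 steps, and nuclei were counted after 5 days.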

BEN = system: BEN
Procedure, shortened: as §1

EMC-BAC-2 = system: EMC-BAC-2
Procedure, shortened: as §1

HARA = system: HARA
Procedure, shortened: as §1

HCC-44 = system: HCC-44
Procedure, shortened: as §1

LCLC-103H = system: LCLC-103H
Procedure, shortened: as §1

LOU-NH91 = system: LOU-NH91
Procedure, shortened: as §1

NCI-H1395 = system: NCI-H1395
Procedure, shortened: as §1

NCI-H1993 = system: NCI-H1993
Procedure, shortened: as §1

NCI-H2023 = system: NCI-H2023
Procedure, shortened: as §1

NCI-H2087 = system: NCI-H2087
Procedure, shortened: as §1

NCI-H2126 = system: NCI-H2126
Procedure, shortened: as §1

NCI-H2347 = system: NCI-H2347
Procedure, shortened: as §1

NCI-H23 = system: NCI-H23
Procedure, shortened: as §1

NCI-H3122 = system: NCI-H3122
Procedure, shortened: as §1

NCI-H441 = system: NCI-H441
Procedure, shortened: as §1

NCI-H522 = system: NCI-H522
Procedure, shortened: as §1

NCI-H596 = system: NCI-H596
Procedure, shortened: as §1

NCI-H647 = system: NCI-H647
Procedure, shortened: as §1

NCI-H650 = system: NCI-H650
Procedure, shortened: as §1

NCI-H727 = system: NCI-H727
Procedure, shortened: as §1

NCI-H838 = system: NCI-H838
Procedure, shortened: as §1

Q: What does the source list for `COc1nc(C)cnc1NS(=O)(=O)c1cccnc1-c1ccc(-c2nnco2)cc1` [Zibotentan] + O=C(c1cc(Cc2n[nH]c(=O)c3ccccc23)ccc1F)N1CCN(C(=O)C2CC2)CC1 [Olaparib] (partner 8 µM)?
A: relative viability (201T; first compound 0.08 µM): 0.819; relative viability (201T; first compound 0.253 µM): 0.828; relative viability (201T; first compound 0.8 µM): 0.846; relative viability (201T; first compound 2.53 µM): 0.876; relative viability (BEN; first compound 0.08 µM): 1.15; relative viability (BEN; first compound 0.253 µM): 1.09; relative viability (BEN; first compound 0.8 µM): 1.09; relative viability (BEN; first compound 2.53 µM): 0.958; relative viability (EMC-BAC-2; first compound 0.08 µM): 0.519; relative viability (EMC-BAC-2; first compound 0.8 µM): 0.562; relative viability (EMC-BAC-2; first compound 2.53 µM): 0.461; relative viability (HARA; first compound 0.08 µM): 0.856; relative viability (HARA; first compound 0.8 µM): 0.455; relative viability (HARA; first compound 2.53 µM): 0.883; relative viability (HCC-44; first compound 0.08 µM): 0.958; relative viability (HCC-44; first compound 0.253 µM): 0.965; relative viability (HCC-44; first compound 0.8 µM): 0.98; relative viability (HCC-44; first compound 2.53 µM): 0.957; relative viability (LCLC-103H; first compound 0.08 µM): 0.738; relative viability (LCLC-103H; first compound 0.253 µM): 0.74; relative viability (LCLC-103H; first compound 0.8 µM): 0.696; relative viability (LCLC-103H; first compound 2.53 µM): 0.751; relative viability (LOU-NH91; first compound 0.08 µM): 0.908; relative viability (LOU-NH91; first compound 0.253 µM): 0.854; relative viability (LOU-NH91; first compound 0.8 µM): 0.999; relative viability (LOU-NH91; first compound 2.53 µM): 0.947; relative viability (NCI-H1395; first compound 0.08 µM): 0.401; relative viability (NCI-H1395; first compound 0.253 µM): 0.486; relative viability (NCI-H1395; first compound 0.8 µM): 0.436; relative viability (NCI-H1395; first compound 2.53 µM): 0.495; relative viability (NCI-H1993; first compound 0.08 µM): 1.01; relative viability (NCI-H1993; first compound 0.253 µM): 0.842; relative viability (NCI-H1993; first compound 0.8 µM): 0.853; relative viability (NCI-H1993; first compound 2.53 µM): 1.08; relative viability (NCI-H2023; first compound 0.08 µM): 0.438; relative viability (NCI-H2023; first compound 0.253 µM): 0.415; relative viability (NCI-H2023; first compound 0.8 µM): 0.516; relative viability (NCI-H2023; first compound 2.53 µM): 0.469; relative viability (NCI-H2087; first compound 0.08 µM): 0.658; relative viability (NCI-H2087; first compound 0.253 µM): 0.668; relative viability (NCI-H2087; first compound 0.8 µM): 0.63; relative viability (NCI-H2087; first compound 2.53 µM): 0.48; relative viability (NCI-H2126; first compound 0.08 µM): 0.945; relative viability (NCI-H2126; first compound 0.253 µM): 0.942; relative viability (NCI-H2126; first compound 0.8 µM): 0.89; relative viability (NCI-H2126; first compound 2.53 µM): 0.951; relative viability (NCI-H2347; first compound 0.08 µM): 0.47; relative viability (NCI-H2347; first compound 0.253 µM): 0.596; relative viability (NCI-H2347; first compound 0.8 µM): 0.635; relative viability (NCI-H2347; first compound 2.53 µM): 0.615; relative viability (NCI-H23; first compound 0.08 µM): 0.266; relative viability (NCI-H23; first compound 0.253 µM): 0.235; relative viability (NCI-H23; first compound 0.8 µM): 0.242; relative viability (NCI-H23; first compound 2.53 µM): 0.251; relative viability (NCI-H3122; first compound 0.08 µM): 0.625; relative viability (NCI-H3122; first compound 0.253 µM): 0.549; relative viability (NCI-H3122; first compound 0.8 µM): 0.581; relative viability (NCI-H3122; first compound 2.53 µM): 0.608; relative viability (NCI-H441; first compound 0.08 µM): 0.549; relative viability (NCI-H441; first compound 0.253 µM): 0.517; relative viability (NCI-H441; first compound 0.8 µM): 0.638; relative viability (NCI-H441; first compound 2.53 µM): 0.576; relative viability (NCI-H522; first compound 0.08 µM): 0.65; relative viability (NCI-H522; first compound 0.253 µM): 0.75; relative viability (NCI-H522; first compound 0.8 µM): 0.681; relative viability (NCI-H522; first compound 2.53 µM): 0.703; relative viability (NCI-H596; first compound 0.08 µM): 0.661; relative viability (NCI-H596; first compound 0.253 µM): 0.595; relative viability (NCI-H596; first compound 0.8 µM): 0.831; relative viability (NCI-H596; first compound 2.53 µM): 0.774; relative viability (NCI-H647; first compound 0.08 µM): 0.592; relative viability (NCI-H647; first compound 0.253 µM): 0.421; relative viability (NCI-H647; first compound 0.8 µM): 0.665; relative viability (NCI-H647; first compound 2.53 µM): 0.494; relative viability (NCI-H650; first compound 0.08 µM): 0.413; relative viability (NCI-H650; first compound 0.253 µM): 0.395; relative viability (NCI-H650; first compound 0.8 µM): 0.52; relative viability (NCI-H650; first compound 2.53 µM): 0.443; relative viability (NCI-H727; first compound 0.08 µM): 0.712; relative viability (NCI-H727; first compound 0.253 µM): 0.586; relative viability (NCI-H727; first compound 0.8 µM): 0.661; relative viability (NCI-H727; first compound 2.53 µM): 0.868; relative viability (NCI-H838; first compound 0.08 µM): 0.756; relative viability (NCI-H838; first compound 0.253 µM): 0.747; relative viability (NCI-H838; first compound 0.8 µM): 0.827; relative viability (NCI-H838; first compound 2.53 µM): 0.849
